The subject of assay [1] is GLP1R localization with the late endosome marker LAMP1. Description: GLP1R colocalization with late endosome marker LAMP1, confocal microscopy, GLP1R-HEK293 cells. Format: cell-based. The note with it: 100 nM, 30 min; Pearson's correlation coefficient, 3 independent experiments; Figure 6d. An excerpt: Nuclei were counterstained with DAPI. Nuclei were counterstained with DAPI.

Assay [2] relates to GLP1R association with early endosomal-associated antigen 1 (EEA1). Description: GLP1R colocalization with early endosome marker EEA1, confocal microscopy, GLP1R-HEK293 cells. The assay is classed as cell-based. The conditions noted are these: 100 nM, 30 min; Pearson's correlation coefficient, 3 independent experiments; Figure 5d.
Experimental: For immunofluorescence microscopy, GLP1R-HEK293 cells were seeded at a density of 25,000 cells/well in 96-well imaging plates (Greiner Bio-One) coated with poly-D-lysine. […] Twenty-four hours later, the cells were washed once with Optimem + Glutamax (Thermo Fisher Scientific, Watham, MA, USA) + 0.1% bovine serum albumin (BSA) (Sigma-Aldrich, St. Louis, MO, USA), and then incubated with Optimem + 0.1% BSA for 15 min at 37 °C. Compounds were diluted in Optimem + 0.1% BSA and cell incubations were performed at 37 °C for the timepoints indicated. The compounds were removed and the cells were washed three times with phosphate-buffered saline (PBS) prior to fixation for immunofluorescence microscopy or electron microscopy/NanoSIMS as described below. […]
Analysis of confocal microscopy micrographs was performed using scripts developed in Columbus analysis software (PerkinElmer, Waltham, MA, USA). […] Mean fluorescence intensity for the GLP1R staining was measured from this cell membrane ROI. Fluorescence intensities were normalized to those measured from untreated cells and expressed as mean per cell per well. For colocalization analyses, Pearson’s correlation co-efficient was calculated for the correlation between the red and green channels and expressed as mean per cell per well. […]
Pearson’s correlation co-efficient for GLP1R colocalization with EEA1 was calculated from cytoplasmic ROIs (d). […]

In the case of exenatide, the “GLP1R colocalization with LAMP1” value in assay [1] is “increase in the GLP1R colocalization with LAMP1”. Moreover, in assay [2], the “GLP1R colocalization with EEA1” value is on record as “GLP1R colocalization with EEA1 was observed”.

These data come from PMC8876276 (Pharmaceutics, 2022).
